Measurements published in US9353082B2, “Pharmaceutical compounds” (BIAL—PORTELA & CA, S.A., priority 2008, dated 2016).

Assays:
FAAH [1] = molecular target: T1, FAAH (Rattus norvegicus, UniProt P97612); assay: In vitro FAAH activity in rat brain membranes, 3H-AEA substrate, % of control; type: biochemical, Wistar rats; conditions: low value = strong inhibitor; for In Vitro FAAH activity, 100 nM: 100 nM test compound; for In Vitro FAAH activity, 10 uM: 10 uM test compound
T1 construct: Frozen brains (without cerebellum) from Wistar rats were used; from tissue; host or cells: Wistar rat brain (without cerebellum), washed membrane pellets
T1 sequence (P97612 1-579): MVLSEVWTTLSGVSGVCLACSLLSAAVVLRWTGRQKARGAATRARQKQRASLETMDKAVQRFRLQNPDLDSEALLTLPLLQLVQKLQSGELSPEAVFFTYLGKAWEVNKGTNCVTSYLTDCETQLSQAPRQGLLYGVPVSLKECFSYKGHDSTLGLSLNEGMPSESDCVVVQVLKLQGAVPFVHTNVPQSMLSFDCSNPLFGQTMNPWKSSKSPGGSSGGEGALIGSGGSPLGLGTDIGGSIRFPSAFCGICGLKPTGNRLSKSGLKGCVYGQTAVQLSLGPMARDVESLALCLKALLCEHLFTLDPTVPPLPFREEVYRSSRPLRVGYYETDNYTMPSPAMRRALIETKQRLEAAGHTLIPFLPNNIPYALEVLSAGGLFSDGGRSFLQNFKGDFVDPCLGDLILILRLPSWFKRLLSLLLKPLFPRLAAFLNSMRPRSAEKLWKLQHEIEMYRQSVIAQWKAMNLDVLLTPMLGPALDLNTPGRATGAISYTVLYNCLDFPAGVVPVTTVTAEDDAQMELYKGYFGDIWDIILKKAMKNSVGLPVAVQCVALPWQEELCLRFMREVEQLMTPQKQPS
Method in brief: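 FAAH activity measured as 3H-ethanolamine released from 2 μM [3H]AEA over 10 min by rat brain membrane preparation, after 15 min 37 °C preincubation with test compound at 10 or 0.1 μM. Charcoal-separated supernatant scintillation-counted; values expressed as % of control minus no-protein blank.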

FAAH [2] = molecular target: T2, FAAH (Mus musculus, UniProt O08914); assay: In vivo FAAH inhibition after oral dosing, remaining activity in liver homogenate (LVh, peripheral tissue); parameters: species or system NMRI mice; conditions: liver homogenate, 3 mg/kg, 8 h
T2 construct: A fragment of liver, left lung lobe and brain without cerebellum were removed; from tissue; host or cells: male NMRI mice; brain (without cerebellum) and liver homogenates
T2 sequence (O08914 1-579): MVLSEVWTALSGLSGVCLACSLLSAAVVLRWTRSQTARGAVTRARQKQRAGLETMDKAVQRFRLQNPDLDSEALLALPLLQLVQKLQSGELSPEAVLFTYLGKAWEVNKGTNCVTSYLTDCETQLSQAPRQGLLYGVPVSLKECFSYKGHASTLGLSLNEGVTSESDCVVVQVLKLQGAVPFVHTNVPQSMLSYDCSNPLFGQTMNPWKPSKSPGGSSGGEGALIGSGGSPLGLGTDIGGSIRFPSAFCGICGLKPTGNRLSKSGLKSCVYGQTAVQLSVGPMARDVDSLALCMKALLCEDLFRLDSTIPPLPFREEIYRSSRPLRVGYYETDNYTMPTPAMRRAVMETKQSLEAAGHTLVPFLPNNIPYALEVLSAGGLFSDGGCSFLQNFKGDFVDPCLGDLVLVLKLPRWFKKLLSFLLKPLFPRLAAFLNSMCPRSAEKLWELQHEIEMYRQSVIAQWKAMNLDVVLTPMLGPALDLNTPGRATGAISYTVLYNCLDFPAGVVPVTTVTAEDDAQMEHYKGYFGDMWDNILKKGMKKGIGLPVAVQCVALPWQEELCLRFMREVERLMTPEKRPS
Method in brief: (§1)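 Remaining FAAH activity is given as % of vehicle-treated controls after blank subtraction, measured by radiolabelled AEA hydrolysis (2 μM AEA, 5 nM 3H-AEA, 37 °C) in brain (10 min) or liver (7 min) homogenates. These came from fasted male NMRI mice dosed orally at 30 or 3 mg/kg.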

FAAH [3] = molecular target: T2, FAAH; assay: In vivo FAAH inhibition after oral dosing, remaining activity in brain homogenate (BRh, central nervous tissue); parameters: species or system NMRI mice; conditions: brain homogenate, 3 mg/kg, 8 h
Method in brief: as §1

| Structure (SMILES) | In Vitro FAAH activity, 100 nM (FAAH [1]) | In Vivo LVh 3 mg/kg 8 h, remaining FAAH activity (FAAH [2]) | In Vivo BRh 3 mg/kg 8 h, remaining FAAH activity (FAAH [3]) | In Vitro FAAH activity, 10 uM (FAAH [1]) |
| --- | --- | --- | --- | --- |
| O=C(N1CCN(c2ccccc2)CC1)n1cnc(-c2cccc(-c3ccccc3)c2)c1 [Compound 196, (4-(biphenyl-3-yl)-1H-imidazol-1-yl)(4-phenylpiperazin-1-yl)methanone] | 2.5 % of control | 78.3 % of control | 88.1 % of control |  |
| CN(C(=O)n1cnc(-c2ccc(N)cc2)c1)c1ccccc1 [Compound 199, 4-(4-aminophenyl)-N-methyl-N-phenyl-1H-imidazole-1-carboxamide] | 89 % of control | 19.7 % of control | 45.9 % of control |  |
| CN(C(=O)n1cnc(-c2ccc(OCCN3CCNCC3)cc2)c1)c1ccccc1.Cl.Cl [Compound 203, N-methyl-N-phenyl-4-(4-(2-(piperazin-1-yl)ethoxy)phenyl)-1H-imidazole-1-carboxamide dihydrochloride] | 93.5 % of control | 64.3 % of control | 101.8 % of control |  |
| NC(=O)c1ccc(Oc2cccc(-c3ncn(C(=O)N4CCN(c5ccccc5)CC4)n3)c2)cc1 [Compound 208, 4-(3-(1-(4-phenylpiperazine-1-carbonyl)-1H-1,2,4-triazol-3-yl)phenoxy)benzamide] | 0.2 % of control | 96.7 % of control | 97.2 % of control |  |
| CC1(C)COCN1C(=O)n1cnc(-c2cccc(Oc3ccc(C(N)=O)cc3)c2)n1 [Compound 209, 4-(3-(1-(4,4-dimethyloxazolidine-3-carbonyl)-1H-1,2,4-triazol-3-yl)phenoxy)benzamide] | 101.5 % of control | 70.1 % of control | 99.8 % of control |  |
| CC1(C)COCN1C(=O)n1cnc(-c2cccs2)n1 [Compound 213, (4,4-dimethyloxazolidin-3-yl)(3-(thiophen-2-yl)-1H-1,2,4-triazol-1-yl)methanone] | 105.6 % of control | 6.9 % of control | 53.7 % of control |  |
| COc1ccc(-c2cn(C(=O)N3COCC3(C)C)cn2)cc1OC [Compound 216, (4-(3,4-dimethoxyphenyl)-1H-imidazol-1-yl)(4,4-dimethyloxazolidin-3-yl)methanone] | 108.6 % of control | 13.3 % of control | 29.3 % of control | 38.3 % of control |
| COc1ccc(-c2cn(C(=O)N(C)C3CCCCC3)cn2)cc1OC [Compound 217, N-cyclohexyl-4-(3,4-dimethoxyphenyl)-N-methyl-1H-imidazole-1-carboxamide] | 80.5 % of control | 4.2 % of control | 6 % of control | 0 % of control |
| CC1(C)COCN1C(=O)n1cnc2ccccc21 [Compound 219, (1H-benzo[d]imidazol-1-yl)(4,4-dimethyloxazolidin-3-yl)methanone] | 111.6 % of control | 89 % of control | 86.8 % of control | 50.6 % of control |
| CC1(C)OCCN1C(=O)n1cnc(-c2ccccc2)c1 [Compound 220, (2,2-dimethyloxazolidin-3-yl)(4-phenyl-1H-imidazol-1-yl)methanone] | 103.7 % of control | 20 % of control | 31.5 % of control |  |
| C[C@@H]1CCC[C@H](C)N1C(=O)n1cnc(-c2ccccc2)c1 [Compound 221, ((2R,6S)-2,6-dimethylpiperidin-1-yl)(4-phenyl-1H-imidazol-1-yl)methanone] | 105.8 % of control | 44.9 % of control | 104.5 % of control |  |
| CN(C(=O)n1cnc2ccccc21)C1CCCCC1 [Compound 222, N-cyclohexyl-N-methyl-1H-benzo[d]imidazole-1-carboxamide] | 102.9 % of control | 59.2 % of control | 111.5 % of control |  |

The remaining lines, values ahead:

| In Vitro FAAH activity, 100 nM (FAAH [1]) | In Vivo LVh 3 mg/kg 8 h, remaining FAAH activity (FAAH [2]) | In Vivo BRh 3 mg/kg 8 h, remaining FAAH activity (FAAH [3]) | In Vitro FAAH activity, 10 uM (FAAH [1]) | Structure (SMILES) |
| --- | --- | --- | --- | --- |
| 76.6 % of control | 5.1 % of control | 8.4 % of control |  | CC1(C)COCN1C(=O)n1cnc(-c2cccnc2)c1.Cl.Cl [Compound 226, (4,4-dimethyloxazolidin-3-yl)(4-(pyridin-3-yl)-1H-imidazol-1-yl)methanone dihydrochloride] |
| 78.1 % of control | 31.9 % of control | 56.4 % of control |  | COc1cc(-c2cn(C(=O)N3COCC3(C)C)cn2)ccc1O [Compound 228, (4,4-dimethyloxazolidin-3-yl)(4-(4-hydroxy-3-methoxyphenyl)-1H-imidazol-1-yl)methanone] |
| 54.2 % of control | 3.6 % of control | 3.9 % of control |  | CC1(C)COCN1C(=O)n1cnc(-c2cccc(-c3ccccc3)c2)c1 [Compound 231, (4-(biphenyl-3-yl)-1H-imidazol-1-yl)(4,4-dimethyloxazolidin-3-yl)methanone] |
| 84.7 % of control | 6.5 % of control | 82.8 % of control | 0 % of control | CC1(C)COCN1C(=O)n1cnc(-c2cccc(-c3cccc(C(N)=O)c3)c2)c1 [Compound 232, 3′-(1-(4,4-dimethyloxazolidine-3-carbonyl)-1H-imidazol-4-yl)biphenyl-3-carboxamide] |
| 74.1 % of control | 21.1 % of control | 33.5 % of control |  | CCC1(C)OCCN1C(=O)n1cnc(-c2ccc(Cl)cc2)c1 (stereo not shown) [Compound 233, (4-(4-chlorophenyl)-1H-imidazol-1-yl)(2-ethyl-2-methyloxazolidin-3-yl)methanone] |
| 76.2 % of control | 80.1 % of control | 108.5 % of control |  | CC1OCC(C)(C)N1C(=O)n1cnc(-c2ccc(Cl)cc2)c1 (stereo not shown) [Compound 235, (4-(4-chlorophenyl)-1H-imidazol-1-yl)(2,4,4-trimethyloxazolidin-3-yl)methanone] |
| 75.4 % of control | 37.7 % of control | 67.7 % of control |  | COc1cccc(-c2cccc(-c3cn(C(=O)N4COCC4(C)C)cn3)c2)c1 [Compound 236, (4,4-dimethyloxazolidin-3-yl)(4-(3′-methoxybiphenyl-3-yl)-1H-imidazol-1-yl)methanone] |
| 1.2 % of control | 2.8 % of control | 67.9 % of control |  | CN(C(=O)n1cnc(-c2cccc(-c3cccc(C(N)=O)c3)c2)c1)C1CCCCC1 [Compound 238, 4-(3′-carbamoylbiphenyl-3-yl)-N-cyclohexyl-N-methyl-1H-imidazole-1-carboxamide] |
